# Key:
# Assay in all cases: calcium imaging (FLIPR), activation of hTAS2R-transfected HEK293T-Gα16gust44 cells
# hTAS2R44 = biological target: T1, hTAS2R44 (Homo sapiens, UniProt P59538, L162M); type: cell-based
# T1 construct: expressed in transfected cells; host or cells: HEK293T cells stably expressing chimeric Gα16gust44, transient transfection
# T1 sequence (P59538 1-309 L162M): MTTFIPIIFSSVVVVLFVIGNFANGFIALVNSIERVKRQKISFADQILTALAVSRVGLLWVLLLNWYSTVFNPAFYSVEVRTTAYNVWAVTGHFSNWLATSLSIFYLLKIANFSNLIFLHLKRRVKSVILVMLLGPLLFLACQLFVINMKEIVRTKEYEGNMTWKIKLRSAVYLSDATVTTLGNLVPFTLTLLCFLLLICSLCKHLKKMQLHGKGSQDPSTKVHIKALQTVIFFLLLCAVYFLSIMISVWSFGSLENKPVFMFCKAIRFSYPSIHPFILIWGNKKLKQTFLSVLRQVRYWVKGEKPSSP
# Description: (§1) Human TAS2R cDNAs were cloned into pcDNA5/FRT (Invitrogen, San Diego, Calif.). For adequate plasma membrane targeting, receptor cDNA was fused to the aminoterminal sequence of the rat somatostatin type 3 receptor at the aminoterminus of the recombinant protein (Bufe, B., T. Hofmann, et al. (2002) Nat Genet. 32(3): 397-401). For immunological detection, the Herpes simplex Glycoprotein D epitope was supplemented at the carboxyterminus of the recombinant protein (Bufe et al., supra). Receptor constructs were transiently transfected into HEK293T cells stably expressing the chimeric G protein subunit Gα16gust44 (Ueda, T., S. Ugawa, et al. (2003) J Neurosci 23(19): 7376-80) using Lipofectamine 2000 (Invitrogen, San Diego, Calif.) in 96-well plates.
# (§2) Calcium Imaging experiments were performed 24 h after transfection using a Fluorometric Imaging Plate Reader (FLIPR, Molecular Devices, Munich, Germany) as previously described (Bufe et al., supra). Taste active compounds were ordered from Sigma (Sigma-Aldrich, Taufkirchen, Germany). Absinthin, 3β hydroxy dihydro costunolide and 3β hydroxy pelenolide were kindly provided by Giovanni Appendino (Novara, Italy). Test substances were directly dissolved in C1 buffer (130 mM NaCl, 10 mM Na-Hepes, 10 mM Glucose, 5 mM KCl, 2 mM CaCl2, pH 7.4) or in DMSO, respectively. DMSO stocks were further diluted in C1 buffer not exceeding a final DMSO concentration of 1% on the cells. For the investigation of antagonistic effects, test substances were premixed. Agonists were applied at concentrations corresponding to EC90, except where indicated otherwise (Table 2). Data were collected from 3 independent experiments performed in quadruplicates and processed with SigmaPlot (SPSS, Chicago, Ill.). Fluorescence signals after application of test substances were corrected for and normalized to background fluorescence (ΔF/F═(F−F0)/F0), and baseline noise was subtracted. Calculation of dose-response curves was done by nonlinear regression using the function f(y)=((a−d)/(1+(x/EC50)^nH)+d).
# (§3) In a first series of experiments we tested the two sesquiterpene lactones 3β hydroxy dihydro costunolide (formula (I) in FIG. 1) and 3β hydroxy pelenolide (formula (II) in FIG. 1) for their ability to activate hTAS2 receptor-expressing HEK293T cells.
# (§4) Signal amplitudes were comparatively small (FIG. 2C).
# hTAS2R38 = biological target: T2, hTAS2R38 (Homo sapiens, UniProt P59533); type: cell-based; settings: 100 μM test substance, bath application; DMSO control
# T2 construct: expressed in transfected cells; host or cells: HEK293T cells stably expressing chimeric Gα16gust44, transient transfection
# T2 sequence (P59533 1-333): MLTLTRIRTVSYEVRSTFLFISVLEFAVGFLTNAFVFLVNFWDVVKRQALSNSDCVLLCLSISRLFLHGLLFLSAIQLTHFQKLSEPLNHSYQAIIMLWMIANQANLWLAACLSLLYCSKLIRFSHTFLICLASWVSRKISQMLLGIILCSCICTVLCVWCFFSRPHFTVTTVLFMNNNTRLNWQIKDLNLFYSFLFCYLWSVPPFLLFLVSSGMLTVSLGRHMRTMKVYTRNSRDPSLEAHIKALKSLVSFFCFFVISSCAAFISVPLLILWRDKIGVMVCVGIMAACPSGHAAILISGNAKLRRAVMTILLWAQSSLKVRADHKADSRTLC
# Description: as §1, §2, §3, §4
# hTAS2R8 = biological target: T3, hTAS2R8 (Homo sapiens, UniProt Q9NYW2); type: cell-based; settings: 100 μM test substance, bath application
# T3 construct: expressed in transfected cells; host or cells: HEK293T cells stably expressing chimeric Gα16gust44, transient transfection
# T3 sequence (Q9NYW2 1-309): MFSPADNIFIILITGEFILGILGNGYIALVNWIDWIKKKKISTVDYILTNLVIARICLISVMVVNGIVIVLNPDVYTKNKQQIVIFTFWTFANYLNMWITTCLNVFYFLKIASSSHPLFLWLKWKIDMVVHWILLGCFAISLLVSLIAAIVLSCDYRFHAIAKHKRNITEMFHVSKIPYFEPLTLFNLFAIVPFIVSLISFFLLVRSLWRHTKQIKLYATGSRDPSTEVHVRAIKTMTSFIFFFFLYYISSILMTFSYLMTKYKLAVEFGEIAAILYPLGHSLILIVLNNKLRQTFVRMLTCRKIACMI
# Description: as §1, §2, §3, §4
# hTAS2R4 = biological target: T4, hTAS2R4 (Homo sapiens, UniProt Q9NYW5); type: cell-based; settings: 100 μM test substance, bath application
# T4 construct: expressed in transfected cells; host or cells: HEK293T cells stably expressing chimeric Gα16gust44, transient transfection
# T4 sequence (Q9NYW5 1-299): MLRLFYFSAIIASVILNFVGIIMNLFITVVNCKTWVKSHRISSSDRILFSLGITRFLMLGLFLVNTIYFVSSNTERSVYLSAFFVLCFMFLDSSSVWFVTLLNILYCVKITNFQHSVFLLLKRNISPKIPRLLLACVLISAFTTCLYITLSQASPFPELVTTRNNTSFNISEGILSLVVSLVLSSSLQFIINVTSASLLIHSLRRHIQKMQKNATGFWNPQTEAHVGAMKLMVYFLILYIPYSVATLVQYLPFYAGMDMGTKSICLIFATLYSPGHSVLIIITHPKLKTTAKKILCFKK
# Description: as §1, §2, §3, §4
# hTAS2R7 = biological target: T5, hTAS2R7 (Homo sapiens, UniProt Q9NYW3); type: cell-based; settings: 100 μM test substance, bath application
# T5 construct: expressed in transfected cells; host or cells: HEK293T cells stably expressing chimeric Gα16gust44, transient transfection
# T5 sequence (Q9NYW3 1-318): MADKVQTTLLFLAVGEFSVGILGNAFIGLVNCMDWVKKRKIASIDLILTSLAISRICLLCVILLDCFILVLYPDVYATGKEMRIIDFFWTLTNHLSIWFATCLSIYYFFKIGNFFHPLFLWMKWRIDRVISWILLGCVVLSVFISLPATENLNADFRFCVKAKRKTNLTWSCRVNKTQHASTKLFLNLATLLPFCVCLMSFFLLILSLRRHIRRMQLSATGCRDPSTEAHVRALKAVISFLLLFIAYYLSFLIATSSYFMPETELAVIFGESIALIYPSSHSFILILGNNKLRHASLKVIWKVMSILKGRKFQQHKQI
# Description: as §1, §2, §3, §4
# other hTAS2 receptors = type: cell-based, human; settings: 100 μM test substance, bath application
# Description: as §1
# Calcium Imaging experiments were performed 24 h after transfection using a Fluorometric Imaging Plate Reader (FLIPR, Molecular Devices, Munich, Germany) as previously described (Bufe et al., supra). Taste active compounds were ordered from Sigma (Sigma-Aldrich, Taufkirchen, Germany). Absinthin, 3β hydroxy dihydro costunolide and 3β hydroxy pelenolide were kindly provided by Giovanni Appendino (Novara, Italy). […] Fluorescence signals after application of test substances were corrected for and normalized to background fluorescence (ΔF/F═(F−F0)/F0), and baseline noise was subtracted. […]
structure (smiles),measurement,setting,value
C/C1=C\C[C@H](O)/C(C)=C/[C@H]2OC(=O)[C@@H](C)C2CC1 (stereo partly drawn) [3β hydroxy dihydro costunolide],calcium response of hTAS2R44-transfected cells,"hTAS2R44; 100 μM test substance, bath application",responded
same,EC50,"hTAS2R44; concentration-response, intracellular calcium",31.5 ± 7.4 µM
same,calcium response of hTAS2R38-transfected cells,hTAS2R38,generated by DMSO used as solvent
same,calcium response of hTAS2R8-transfected cells,hTAS2R8,responded
same,calcium response of hTAS2R4-transfected cells,hTAS2R4,responded
same,calcium response of hTAS2R7-transfected cells,hTAS2R7,responded
same,calcium response of cells expressing any of the other TAS2Rs,other hTAS2 receptors,did not respond
